Structures can show the parent of a compound that is named as a salt. Where two headings read alike, the source gives them in different places.
What was measured:
Huh7 cells = assay: MTT assay, Huh7 cells; conditions: for TC50 DENV-2 (7 + 17 h): Huh7, compounds 7 h then compound-free media 17 h; for TC50 DENV-2 (24 h): Huh7, compounds 24 h
SFV [1] = assay: microbe, parasite or virus in culture; type: cell-based, Semliki Forest virus; conditions: Semliki Forest virus; for inhibition at 10 µM: M-HeLa, 7 h, read-out: % inhibition (SFV screen); for IC50: HeLa Kyoto, read-out: IC50 SFV (7 h)
DENV-2 = DENV-2 infection assay / secondary screen (E protein staining); type: cell-based, dengue virus serotype 2; conditions: Dengue virus, DENV2, Huh-7, 24 h; for inhibition at 10 µM: read-out: % inhibition (DENV-2 screen)
viruses/VLPs tested = type: cell-based
[2] = test system: DID-labelled SFV hemifusion/fusion; type: cell-based, Semliki Forest virus; conditions: HeLa Kyoto, 10 μM (20 μM Raloxifene; Bafilomycin 100 nM), 40 min at 37 °C
SFV [3] = type: cell-based, Semliki Forest virus
in vitro [4] = conditions: human
EBOV VLP = assay: microbe, parasite or virus in culture; type: cell-based, Ebola virus; conditions: Zaire ebolavirus, HeLa Kyoto, 48 h, read-out: IC50 EBOV
RABV VLP = assay: microbe, parasite or virus in culture; type: cell-based, rabies virus; conditions: for IC50: Lyssavirus rabies, HeLa Kyoto, 24 h, read-out: IC50 RABV
YF17D = assay: organism not typed; type: cell-based, yellow fever 17D; conditions: Huh-7, read-out: IC50 YF17D
DENV-1 = assay: microbe, parasite or virus in culture; type: cell-based, dengue virus; conditions: Dengue virus, DENV1, Huh-7, read-out: IC50 DENV-1
DENV-3 = assay: microbe, parasite or virus in culture; type: cell-based, dengue virus; conditions: Dengue virus, DENV3, Huh-7, read-out: IC50 DENV-3
in vitro [5] = conditions: human, % viability (SFV screen)
VSV VLP = assay: microbe, parasite or virus in culture; type: cell-based, vesicular stomatitis virus; conditions: Vesicular stomatitis virus, HeLa Kyoto, 24 h, read-out: IC50 VSV
HSV-1 = assay: microbe, parasite or virus in culture; type: cell-based, herpes simplex virus 1; conditions: 8 h; for IC50: Human alphaherpesvirus 1, Vero, read-out: IC50 HSV (Vero)
SINV = assay: microbe, parasite or virus in culture; type: cell-based, Sindbis virus; conditions: Sindbis virus, HeLa Kyoto, read-out: IC50 SINV
H5N1 VLP = assay: microbe, parasite or virus in culture; type: cell-based, influenza H5N1; conditions: for IC50: Influenza A virus, H5N1, HeLa Kyoto, 48 h, read-out: IC50 H5N1
HeLa Kyoto cells = conditions: human
VACV = assay: microbe, parasite or virus in culture; type: cell-based, vaccinia virus; conditions: for IC50: Orthopoxvirus vaccinia, HeLa Kyoto, 8 h, read-out: IC50 VACV
HCV = assay: microbe, parasite or virus in culture; type: cell-based, hepatitis C virus; conditions: Hepatitis C virus, Huh7.5, read-out: IC50 HCV
ZIKV = assay: microbe, parasite or virus in culture; type: cell-based, Zika virus; conditions: for IC50: Zika virus, Huh-7, read-out: IC50 ZIKV
HIV-1 = assay: microbe, parasite or virus in culture; type: cell-based, human immunodeficiency virus type 1; conditions: for IC50 HIV: virus, HeLa TZM-bl, 24 h
SFV E1 trimer formation = conditions: HeLa Kyoto, MOI 100; Chloroquine 100 μM
[6] = test system: Renilla luciferase expression (protein synthesis); type: cell-based
[7] = in vivo
in vivo = conditions: CD1, mouse, ip, 10 mg/kg
SFV internalisation = type: cell-based, Semliki Forest virus
VSV_Blam_VLP fusion = assay: microbe, parasite or virus in culture; type: cell-based; conditions: Vesicular stomatitis virus, HeLa Kyoto, read-out: Inhibition of VSV_Blam_VLP fusion compared to DMSO controls
[8] = read-out: IC50 DENV-2 (7 + 17 h)

CCCCc1oc2ccccc2c1C(=O)c1cc(I)c(OCCN(CC)CC)c(I)c1 [Amiodarone, Amiodarone hydrochloride]
TC50 DENV-2 (7 + 17 h) (Huh7 cells): 40.6 µM
TC50 DENV-2 (24 h) (Huh7 cells): ~25.5 µM
inhibition at 10 µM (SFV [1]): 85.5%
inhibition at 10 µM (DENV-2): 92.9%
Viruses Inhibited (viruses/VLPs tested): Endosomal pH-dep.
Inhibition of DID-SFV de-quenching (in words) [2]: Intermediate levels of inhibition
Activity when added before SFV or 30 and 60 min after internalisation (SFV [3]): act exclusively before (or at the stage of) fusion
Time of Addition (SFV [3]): Before fusion

CCN(CC)Cc1cc(Nc2ccnc3cc(Cl)ccc23)ccc1O [Amodiaquine, Amodiaquine dihydrochloride dihydrate]
TC50 DENV-2 (7 + 17 h) (Huh7 cells): 44.2 µM
TC50 DENV-2 (24 h) (Huh7 cells): 18.4 µM
viability at 10 µM (in vitro [4]): 79%
IC50 (EBOV VLP): 0.9 µM
IC50 (RABV VLP): 23.5 µM
IC50 (YF17D): 5.3 µM
IC50 (SFV [1]): 8.5 µM
inhibition at 10 µM (SFV [1]): 73.3%
inhibition at 10 µM (DENV-2): 92.1%
IC50 (DENV-2; [8]): 12.7 µM
IC50 (DENV-2; read-out: IC50 DENV-2 (24 h)): 17.2 µM
Viruses Inhibited (viruses/VLPs tested): Endosomal pH-dep.
Inhibition of DID-SFV de-quenching (in words) [2]: Intermediate levels of inhibition
IC50 (DENV-1): ~24.8 µM
IC50 (DENV-3): ~25 µM
viability at 10 µM (in vitro [5]): 115%
IC50 (VSV VLP): 11.2 µM
IC50 (HSV-1): 28.2 µM
IC50 (SINV): 11.3 µM
Activity when added before SFV or 30 and 60 min after internalisation (SFV [3]): act exclusively before (or at the stage of) fusion
Time of Addition (SFV [3]): Before fusion
IC50 (H5N1 VLP): 13.6 µM
TC50 SFV (7 h) (HeLa Kyoto cells): >50 µM
TC50 SFV (7h) (HeLa Kyoto cells): >50000 µM
IC50 VACV (VACV): No inhibition
IC50 (HCV): 4.2 µM
IC50 ZIKV (ZIKV): No inhibition
IC50 HIV (HIV-1): No inhibition

CO/C1=C\C(C)=C\[C@@H](C)[C@@H](O)[C@@H](C)C/C(C)=C/C=C/[C@H](OC)[C@@H]([C@@H](C)[C@@H](O)[C@H](C)[C@@]2(O)C[C@@H](O)[C@H](C)[C@@H](C(C)C)O2)OC1=O [Bafilomycin]
Inhibition of DID-SFV de-quenching (in words) [2]: Strong inhibition of de-quenching

CC(C)COCC(CN(Cc1ccccc1)c1ccccc1)N1CCCC1 (stereo not shown) [Bepridil, Bepridil hydrochloride]
TC50 DENV-2 (7 + 17 h) (Huh7 cells): ~48.8 µM
TC50 DENV-2 (24 h) (Huh7 cells): ~23.4 µM
viability at 10 µM (in vitro [4]): 48.7%
IC50 (EBOV VLP): 0.8 µM
IC50 (RABV VLP): 6.9 µM
IC50 (YF17D): 7.1 µM
IC50 (SFV [1]): 9.5 µM
inhibition at 10 µM (SFV [1]): 91.2%
inhibition at 10 µM (DENV-2): 97.8%
IC50 (DENV-2; [8]): 15.2 µM
IC50 (DENV-2; read-out: IC50 DENV-2 (24 h)): 12.1 µM
Viruses Inhibited (viruses/VLPs tested): Endosomal pH-dep.
Inhibition of DID-SFV de-quenching (in words) [2]: Intermediate levels of inhibition
IC50 (DENV-1): ~20 µM
IC50 (DENV-3): ~20 µM
viability at 10 µM (in vitro [5]): 71.3%
IC50 (VSV VLP): 10.4 µM
IC50 HSV (Vero) (HSV-1; virus, Vero cells): No inhibition
IC50 (SINV): 14.6 µM
Activity when added before SFV or 30 and 60 min after internalisation (SFV [3]): act exclusively before (or at the stage of) fusion
Time of Addition (SFV [3]): Before fusion
IC50 (H5N1 VLP): 8.2 µM
TC50 SFV (7 h) (HeLa Kyoto cells): 34.9 µM
TC50 SFV (7h) (HeLa Kyoto cells): 34900 µM
IC50 (VACV): 26.8 µM
IC50 (HCV): ~12.4 µM
IC50 (ZIKV): ~25.2 µM
IC50 HIV (HIV-1): No inhibition

CCN(CC)CCCC(C)Nc1ccnc2cc(Cl)ccc12 (stereo not shown) [Chloroquine]
SFV E1 trimer formation (SFV E1 trimer formation): prevented trimer formation

O=C(Nc1ccc([N+](=O)[O-])cc1Cl)c1cc(Cl)ccc1O [Niclosamide]
TC50 DENV-2 (7 + 17 h) (Huh7 cells): >50 µM
TC50 DENV-2 (24 h) (Huh7 cells): 12.8 µM
Decrease of Renilla signal (protein synthesis) [6]: more than 50%
Peak blood concentration ([7]; CD1, mouse): 40 µM
Blood level after 2 h ([7]; mouse): undetectable
viability at 10 µM (in vitro [4]): 36.9%
IC50 (EBOV VLP): 2.9 µM
IC50 (RABV VLP): 1.3 µM
IC50 (YF17D): < 0.3 µM
IC50 (SFV [1]): 3 µM
inhibition at 10 µM (SFV [1]): 73.1%
inhibition at 10 µM (DENV-2): 75.4%
IC50 (DENV-2; [8]): 1.1 µM
IC50 (DENV-2; read-out: IC50 DENV-2 (24 h)): 0.4 µM
Viruses Inhibited (viruses/VLPs tested): All tested
Inhibition of DID-SFV de-quenching (in words) [2]: Strong inhibition of de-quenching
IC50 (DENV-1): 1.5 µM
IC50 (DENV-3): 1.6 µM
viability at 10 µM (in vitro [5]): 104%
Tmax (in vivo): 15 min
IC50 (VSV VLP): 3.5 µM
IC50 (HSV-1): 1.3 µM
IC50 (SINV): 2.8 µM
SFV E1 trimer formation (SFV E1 trimer formation): No trimers were observed
Activity when added before SFV or 30 and 60 min after internalisation (SFV [3]): minor but reproducible decrease in activity
Time of Addition (SFV [3]): Before and after fusion
IC50 (H5N1 VLP): 1.4 µM
TC50 SFV (7 h) (HeLa Kyoto cells): >50 µM
TC50 SFV (7h) (HeLa Kyoto cells): >50000 µM
IC50 (VACV): 3 µM
IC50 (HCV): 0.2 µM
IC50 (ZIKV): ~0.7 µM
Internalised SFV E1/E2 after subtilisin treatment (SFV internalisation): Loss of E1/E2
Kinetics of SFV internalisation (subtilisin resistance) (SFV internalisation): remained lower compared to untreated control
inhibition at 10 µM (VSV_Blam_VLP fusion): > 50%
IC50 (HIV-1; Human immunodeficiency virus 1, 24 h, read-out: IC50 HIV): 3.3 µM

O=C(c1ccc(OCCN2CCCCC2)cc1)c1c(-c2ccc(O)cc2)sc2cc(O)ccc12 [Raloxifene, Raloxifene hydrochloride]
TC50 DENV-2 (7 + 17 h) (Huh7 cells): 24.8 µM
TC50 DENV-2 (24 h) (Huh7 cells): ~22.63 µM
viability at 10 µM (in vitro [4]): 60.4%
IC50 (EBOV VLP): 1.4 µM
IC50 RABV (RABV VLP): No inhibition
IC50 (YF17D): 7.8 µM
IC50 (SFV [1]): 15.1 µM
inhibition at 10 µM (SFV [1]): 87.7%
inhibition at 10 µM (DENV-2): 80%
IC50 (DENV-2; [8]): 5.7 µM
IC50 (DENV-2; read-out: IC50 DENV-2 (24 h)): 9.8 µM
Viruses Inhibited (viruses/VLPs tested): Unclear pattern
Inhibition of DID-SFV de-quenching (in words) [2]: Intermediate levels of inhibition
IC50 (DENV-1): 8.8 µM
IC50 (DENV-3): 5.3 µM
viability at 10 µM (in vitro [5]): 92%
IC50 (VSV VLP): 12.7 µM
IC50 (HSV-1): 23.5 µM
IC50 (SINV): 30.6 µM
Activity when added before SFV or 30 and 60 min after internalisation (SFV [3]): minor but reproducible decrease in activity
Time of Addition (SFV [3]): Before and after fusion
IC50 H5N1 (H5N1 VLP): No inhibition
TC50 SFV (7 h) (HeLa Kyoto cells): >50 µM
TC50 SFV (7h) (HeLa Kyoto cells): >50000 µM
IC50 (VACV): 20 µM
IC50 (HCV): 3.9 µM
inhibition at 10 µM (VSV_Blam_VLP fusion): > 50%
IC50 HIV (HIV-1): No inhibition

— paper PMC6410080 (Viruses, 2019)
